The results in this text go back to ChEMBL document CHEMBL4017496 (J Med Chem, 2017).

Experiment [1] in a line: Induction of adipogenesis in human bone marrow-derived mesenchymal stem cells assessed as adiponectin level at 20 uM measured on day 7 after 48 hrs by ELISA. Type of experiment: functional, Mesenchymal stem cell. (In general: ELISA stands for enzyme-linked immunosorbent assay.)
In experiment [2] the target is T1, Peroxisome proliferator-activated receptor alpha (Homo sapiens) (UniProt Q07869).
T1 sequence (whole entry): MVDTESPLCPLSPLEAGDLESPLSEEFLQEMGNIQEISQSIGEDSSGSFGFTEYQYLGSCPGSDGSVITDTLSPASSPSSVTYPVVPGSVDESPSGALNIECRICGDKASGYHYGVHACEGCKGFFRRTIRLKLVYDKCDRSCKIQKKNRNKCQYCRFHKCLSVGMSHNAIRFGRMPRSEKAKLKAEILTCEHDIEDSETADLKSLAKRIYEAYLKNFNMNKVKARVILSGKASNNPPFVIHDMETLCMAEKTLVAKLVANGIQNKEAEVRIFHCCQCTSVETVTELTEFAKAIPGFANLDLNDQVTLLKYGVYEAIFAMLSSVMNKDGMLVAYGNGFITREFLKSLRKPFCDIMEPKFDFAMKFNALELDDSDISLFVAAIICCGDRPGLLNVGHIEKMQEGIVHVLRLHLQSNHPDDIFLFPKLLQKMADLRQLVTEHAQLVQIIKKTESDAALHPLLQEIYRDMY
Briefly: Displacement of Fluormone-Pan-PPAR Green from human GST-tagged PPARalpha LBD at 20 uM by TR-FRET assay relative to control. In general terms: In TR-FRET formats the signal depends on donor and acceptor labels being close together.

For experiment [3], the target named is T2, Peroxisome proliferator-activated receptor delta (Homo sapiens, UniProt Q03181).
T2 sequence (Q03181 whole entry): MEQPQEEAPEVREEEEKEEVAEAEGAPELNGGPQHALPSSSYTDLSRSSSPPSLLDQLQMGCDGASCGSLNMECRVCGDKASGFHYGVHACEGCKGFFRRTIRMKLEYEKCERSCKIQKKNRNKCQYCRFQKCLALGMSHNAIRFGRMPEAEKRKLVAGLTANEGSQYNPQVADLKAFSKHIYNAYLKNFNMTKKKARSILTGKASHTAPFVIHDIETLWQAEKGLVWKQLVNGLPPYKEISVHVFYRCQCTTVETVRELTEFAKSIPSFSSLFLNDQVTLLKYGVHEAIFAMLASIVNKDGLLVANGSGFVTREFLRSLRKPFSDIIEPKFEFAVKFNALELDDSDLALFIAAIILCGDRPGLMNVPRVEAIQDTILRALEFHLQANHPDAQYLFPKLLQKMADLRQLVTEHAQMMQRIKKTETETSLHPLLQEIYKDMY
Briefly: Displacement of Fluormone-Pan-PPAR Green from human GST-tagged PPARdelta LBD by TR-FRET assay.

A short description of experiment [4]: Induction of adipogenesis in human bone marrow-derived mesenchymal stem cells assessed as adiponectin level at 4 uM measured on day 7 after 48 hrs by ELISA. Type of experiment: functional, Mesenchymal stem cell.
In experiment [5] the target is T3, Peroxisome proliferator-activated receptor gamma (Homo sapiens) (UniProt P37231).
T3 sequence (whole entry): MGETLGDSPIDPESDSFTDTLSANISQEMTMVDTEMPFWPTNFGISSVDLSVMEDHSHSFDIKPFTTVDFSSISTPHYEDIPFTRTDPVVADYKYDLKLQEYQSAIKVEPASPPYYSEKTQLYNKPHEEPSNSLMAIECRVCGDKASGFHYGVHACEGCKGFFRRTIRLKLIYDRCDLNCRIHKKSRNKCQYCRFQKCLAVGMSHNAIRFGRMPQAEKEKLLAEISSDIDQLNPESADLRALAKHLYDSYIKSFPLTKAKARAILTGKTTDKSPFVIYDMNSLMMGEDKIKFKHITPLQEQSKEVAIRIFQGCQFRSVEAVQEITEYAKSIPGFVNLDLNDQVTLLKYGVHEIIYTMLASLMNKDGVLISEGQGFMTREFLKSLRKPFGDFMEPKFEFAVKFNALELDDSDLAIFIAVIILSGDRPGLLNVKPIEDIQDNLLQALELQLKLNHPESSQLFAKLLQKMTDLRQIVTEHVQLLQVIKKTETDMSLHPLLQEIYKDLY
The experiment in a line: Displacement of Fluormone-Pan-PPAR Green from human GST-tagged PPARgamma LBD at 20 uM by TR-FRET assay relative to control.

The subject of experiment [6] is Mesenchymal stem cell. Briefly: Induction of adipogenesis in human bone marrow-derived mesenchymal stem cells assessed as adiponectin level at 20 to 30 uM measured on day 7 after 48 hrs by ELISA. It is filed as functional, cell-based.
Another experiment addresses T4, Adenosine receptor A3 (Homo sapiens, UniProt P0DMS8).
T4 sequence (P0DMS8 whole entry): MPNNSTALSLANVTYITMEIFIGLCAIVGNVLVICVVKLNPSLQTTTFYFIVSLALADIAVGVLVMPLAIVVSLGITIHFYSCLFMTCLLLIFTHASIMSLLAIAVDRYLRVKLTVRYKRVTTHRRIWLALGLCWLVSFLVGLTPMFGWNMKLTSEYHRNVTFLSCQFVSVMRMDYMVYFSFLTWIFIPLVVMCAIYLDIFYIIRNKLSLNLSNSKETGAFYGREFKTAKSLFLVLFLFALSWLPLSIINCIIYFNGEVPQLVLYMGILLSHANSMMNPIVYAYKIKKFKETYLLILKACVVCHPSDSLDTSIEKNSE
The experiment in a line: Displacement of [125I]I-AB-MECA from human A3 adenosine receptor expressed in CHO cell membranes after 60 mins by gamma counting method. (Displacement assays read how much labelled ligand stays bound in the presence of the test substance.)

Experiment [7] deals with T3, Peroxisome proliferator-activated receptor gamma (Homo sapiens). The experiment in a line: Transactivation of human PPARgamma expressed in African green monkey CV1 cells at 10 uM by luciferase reporter gene assay relative to control. It is filed as cell-based.
The target in experiment [8] is T5, Peroxisome proliferator-activated receptor delta (Homo sapiens) (UniProt Q03181).
T5 sequence (whole entry): T2 sequence (Q03181 whole entry)
Briefly: Transactivation of human GST-tagged PPARdelta LBD assessed as fluorescein-C33 coactivator recruitment at 10 uM by TR-FRET assay.

For experiment [9], the system named is Mus musculus. The experiment in a line: Antidiabetic activity in STZ-induced diabetic C57BL/6J mouse assessed as insulin sensitivity by measuring reduction of serum glucose levels at 20 mg/kg,po for 5 days measured at 1 and 4 hrs post last dose. It is filed as functional, organism-based.
For experiment [10], the target named is T5, Peroxisome proliferator-activated receptor delta (Homo sapiens). The experiment in a line: Transrepression of human GST-tagged PPARdelta LBD assessed as induction of corepressor SMRT-ID2 peptide recruitment by TR-FRET assay.
The target of experiment [11] is Peroxisome proliferator-activated receptor delta (Homo sapiens) (UniProt Q03181). Briefly: Antagonist activity at human GST-tagged PPARdelta LBD assessed as reduction in GW501516-induced fluorescein-C33 coactivator recruitment at 1 uM by TR-FRET assay relative to control.
The test system of experiment [12] is Mesenchymal stem cell. Briefly: Induction of adipogenesis in human bone marrow-derived mesenchymal stem cells assessed as increase in adiponectin production at 20.4 uM after 7 days in presence of IDX. Type of experiment: functional, cell-based.
Experiment [13] in a line: Induction of adipogenesis in mouse 7F2 cells transfected with human AR assessed as increase in […] at 1 to 10 uM after 7 to 12 days by staining based oil red O phase contrast microscopic method relative to control. Type of experiment: functional.
The target in experiment [14] is T6, Peroxisome proliferator-activated receptor gamma (Homo sapiens, UniProt P37231).
T6 sequence (P37231 whole entry): T3 sequence (whole entry)
Briefly: (§1) Displacement of Fluormone-Pan-PPAR Green from human GST-tagged PPARgamma LBD by TR-FRET assay.

The target of experiment [15] is T5, Peroxisome proliferator-activated receptor delta (Homo sapiens). The experiment in a line: Displacement of Fluormone-Pan-PPAR Green from human GST-tagged PPARdelta LBD at 10 uM by TR-FRET assay relative to control.
Experiment [16] concerns Mus musculus. The experiment in a line: Antidiabetic activity in STZ-induced diabetic C57BL/6J mouse assessed as insulin sensitivity by measuring reduction of serum glucose levels administered po for 5 days measured at 1 and 4 hrs post last dose. It is filed as functional, organism-based.
Experiment [17] deals with T3, Peroxisome proliferator-activated receptor gamma (Homo sapiens). The description is as §1.

pKi: −log10 of the molar value. Active and inactive are the calls of the source. No cut-off for these calls is given here.

As usually defined, the inhibition is the percentage by which the read-out fell short of the control. By pKi is commonly meant −log10 of the Ki, conventionally taken in molar units. As for `O=C(NC1CC1)[C@H]1S[C@@H](n2cnc3c(NCc4cccc(I)c4)ncnc32)[C@H](O)[C@@H]1O`, the Activity in [1] worked out at 249 pg/mL; in experiment [4] it was 174 pg/mL. For the same compound, the inhibition came out at 37.6% in [2] and 49.1% in experiment [5]. Also, the pKi in experiment [3] was 5.53.
Regarding `CCNC(=O)[C@H]1S[C@@H](n2cnc3c(NCc4cccc(I)c4)ncnc32)[C@H](O)[C@@H]1O`, the Activity in experiment [1] was determined as 242 pg/mL; in experiment [4] it was 118 pg/mL. The figures for the inhibition in experiment [2] and in experiment [5] were 29.3% and 37.1%, respectively. This compound showed a pKi in experiment [3] of 5.50.
With `CCCn1cc2c(nc(NC(=O)Nc3ccc(OC)cc3)n3nc(-c4ccco4)nc23)n1`, in the experiment with Mesenchymal stem cell [6], the result was inactive.
Turning to `O[C@@H]1[C@H](O)CS[C@H]1n1cnc2c(NCc3cccc(I)c3)ncnc21`, the pKi on Adenosine receptor A3 was 8.82.
For `CNC(=O)[C@H]1S[C@@H](n2cnc3c(NCc4cccc(I)c4)ncnc32)[C@H](O)[C@@H]1O`, the Activity in experiment [1] is 343 pg/mL; in [7], 46.9%; in [4], 126 pg/mL. The result in experiment [8] was inactive. The outcome (with Mus musculus [9]; in experiment [10]) was Active. Further, the inhibition was 13.5% in experiment [2], 22% in experiment [11] and 46.9% in experiment [5]. The pKi in experiment [3] was 5.60; at Adenosine receptor A3, 9.52.
In the case of `CC(C)Cn1c(=O)n(C)c(=O)c2nc[nH]c21` [ISOBUTYLMETHYLXANTHINE], the Activity in experiment [1] and in experiment [4] was 100 pg/mL each time.
Take `OC[C@H]1O[C@@H](n2cnc3c(NC4CCCC4)nc(Cl)nc32)[C@H](O)[C@@H]1O`: the outcome with Mesenchymal stem cell [12] was inactive. In addition, the Activity in experiment [13] is 20 - 30%.
In the case of `O=C(NCC1CC1)[C@H]1S[C@@H](n2cnc3c(NCc4cccc(I)c4)ncnc32)[C@H](O)[C@@H]1O`, the Activity in [1] is 490 pg/mL; in [4] it was 242 pg/mL. Further, the inhibition in [2] was 16.4%.
`CCNC(=O)[C@H]1O[C@@H](n2cnc3c(N)ncnc32)[C@H](O)[C@@H]1O` [NECA]: the result in the experiment on Mesenchymal stem cell [12] was inactive. Further, the Activity in experiment [13] is listed as 20 - 30%.
With `O[C@@H]1[C@H](O)CS[C@H]1n1cnc2c(NCc3ccccc3Cl)nc(Cl)nc21`, the Activity worked out at 268 pg/mL in [1] and 107 pg/mL in [4]. Moreover, the inhibition in [2] and in experiment [5] was 19.2% each time. The pKi in experiment [3] was 6.21.
On to `CCNC(=O)[C@H]1O[C@@H](n2cnc3c(N)nc(NCCc4ccc(CCC(=O)O)cc4)nc32)[C@H](O)[C@@H]1O`, for which the result with Mesenchymal stem cell [12] was inactive.
Consider `O=C(NC1CCC1)[C@H]1S[C@@H](n2cnc3c(NCc4cccc(I)c4)ncnc32)[C@H](O)[C@@H]1O`, for which the Activity in [1] amounted to 633 pg/mL; in experiment [4], 323 pg/mL. In addition, the inhibition in experiment [2] was found to be 11.7%. The pKi is 5.58 in experiment [3] and 6.77 in experiment [14].
For `CNC(=O)[C@H]1S[C@@H](n2cnc3c(NCc4cccc(I)c4)nc(Cl)nc32)[C@H](O)[C@@H]1O`, in that order: 738 pg/mL, 131 pg/mL, 37.8%, 6.80 and 5.34.
In the case of `COc1ccc(Cl)cc1C(=O)NCCc1ccc(S(=O)(=O)NC(=O)NC2CCCCC2)cc1` [GLYBURIDE], the figures for the Activity in [1] and in experiment [4] were 1000 pg/mL and 838 pg/mL, respectively. In addition, the inhibition in [15] was determined as 21.5%.
Turning to `O[C@@H]1[C@H](O)CS[C@H]1n1cnc2c(NCc3cccc(I)c3)nc(Cl)nc21`, the Activity in experiment [1] was 857 pg/mL; in experiment [7] it was 54.3%; in experiment [10], “Dose-dependent effect”; in experiment [4], 192 pg/mL; in the experiment with Mus musculus [16], “Dose-dependent effect”. The outcome in [8] was inactive. In the experiment on Mus musculus [9], the outcome was Active. This compound showed a pKi in experiment [3] of 8.32. Besides, the inhibition in [11] is 57%; in experiment [17], “Dose-dependent effect”.
For the compound `C[C@@H]1C[C@H]2[C@@H]3CCC4=CC(=O)C=C[C@]4(C)[C@@]3(F)[C@@H](O)C[C@]2(C)[C@@]1(O)C(=O)CO` [DEXAMETHASONE], the Activity in [1] and in [4] was 100 pg/mL throughout.
As for `CNC(=O)[C@@]12C[C@@H]1[C@@H](n1cnc3c(NCc4cccc(Cl)c4)nc(C#Cc4ccc(F)c(F)c4)nc31)[C@H](O)[C@@H]2O`, in the experiment on Mesenchymal stem cell [6], the outcome was inactive.
For `Cc1c(C)c2c(c(C)c1O)CCC(C)(COc1ccc(CC3SC(=O)NC3=O)cc1)O2` (centres undefined), the inhibition in experiment [15] turned out to be 23.4%.
Consider `O[C@@H]1[C@H](O)CS[C@H]1n1cnc2c(NCc3cccc(Cl)c3)nc(Cl)nc21`, for which the Activity in [1] was 442 pg/mL; in experiment [4], 196 pg/mL. Besides, the figures for the inhibition in experiment [2] and in experiment [5] were 4.5% and 40.8%, respectively.
